The record followed here is patent US9493396B2, “Substituted naphthalene compounds as calcium sensing receptor modulators” (LUPIN ATLANTIS HOLDINGS SA, priority 2013, dated 2016).

Where a name gives a salt, the structure may show the parent alone.

This experiment addresses T1, Calcium sensing receptor (hCaSR) (Homo sapiens, UniProt P41180).
T1 construct: expressed in transfected cells; host or cells: HEK293 (stably transfected)
T1 sequence (P41180 20-1078): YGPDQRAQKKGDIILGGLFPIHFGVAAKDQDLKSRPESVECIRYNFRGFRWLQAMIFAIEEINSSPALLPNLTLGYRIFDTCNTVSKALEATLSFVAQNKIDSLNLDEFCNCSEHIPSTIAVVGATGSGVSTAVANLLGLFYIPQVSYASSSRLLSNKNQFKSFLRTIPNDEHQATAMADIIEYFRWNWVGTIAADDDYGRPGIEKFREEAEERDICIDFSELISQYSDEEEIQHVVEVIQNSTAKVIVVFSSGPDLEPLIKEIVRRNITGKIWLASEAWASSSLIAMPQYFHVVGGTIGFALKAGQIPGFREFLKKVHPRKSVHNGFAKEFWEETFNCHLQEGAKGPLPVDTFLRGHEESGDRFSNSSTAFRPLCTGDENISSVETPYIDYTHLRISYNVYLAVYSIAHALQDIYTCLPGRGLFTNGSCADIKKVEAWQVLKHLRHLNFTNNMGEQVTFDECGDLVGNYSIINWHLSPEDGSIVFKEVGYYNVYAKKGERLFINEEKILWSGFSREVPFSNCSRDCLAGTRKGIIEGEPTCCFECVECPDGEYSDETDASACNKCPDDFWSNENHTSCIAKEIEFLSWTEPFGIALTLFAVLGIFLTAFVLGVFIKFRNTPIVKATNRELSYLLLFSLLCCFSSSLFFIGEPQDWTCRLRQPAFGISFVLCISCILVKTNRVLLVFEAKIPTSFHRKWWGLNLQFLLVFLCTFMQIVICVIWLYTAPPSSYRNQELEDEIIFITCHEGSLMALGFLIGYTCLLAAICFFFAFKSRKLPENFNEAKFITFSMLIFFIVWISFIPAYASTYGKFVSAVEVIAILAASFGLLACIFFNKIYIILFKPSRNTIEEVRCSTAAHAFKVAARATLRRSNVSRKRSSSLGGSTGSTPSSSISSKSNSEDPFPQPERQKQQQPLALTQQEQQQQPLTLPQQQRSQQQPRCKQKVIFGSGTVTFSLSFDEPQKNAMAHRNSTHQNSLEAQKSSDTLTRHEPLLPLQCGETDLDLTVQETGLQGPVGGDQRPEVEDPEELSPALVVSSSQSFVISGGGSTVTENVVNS
The experiment is described as follows: In-vitro assay of calcimimetics through modulation of calcium sensing receptor (intracellular calcium increase, FLIPR). It counts as cell-based. The note with it: stably transfected HEK293 cells expressing hCaSR; Fluo4NW dye; 0.3 mM CaCl2; 8-point assay; read-out: EC50 in range. As to the method: In-Vitro Assay Method of Calcimimetics Through Modulation of Calcium Sensing Receptor (CaSR): The ability of the compounds to modulate Calcium sensing receptor is determined by measuring an increase in intracellular calcium [Ca^2+]i. Stably transfected HEK293 cells expressing hCaSR_pTriEx-3 hygro vector are developed. Cells are grown overnight on a 96-well plate to 80% confluency in Ham's F12 containing 20% FBS at 37° C., 5% CO2. Subsequently, cells are washed extensively with 20 mM HEPES buffer containing 126 mM […], 1 mM MgCl2 and 4 mM KCl to remove serum components that might interfere with the assay. Cells are loaded with calcium sensing Fluo4NW dye in HEPES base buffer containing 0.1% BSA and 1 mg/ml glucose for 30 minutes to measure changes in intracellular calcium. The activities of the compounds are measured in FLIPR using 0.3 mM CaCl2 in 20 mM HEPES base buffer. The effectiveness of the compound to modulate receptor activity is determined by calculating the EC50 responses for that compound in an 8-point assay and plotted using GraphPad Prism 5.
On the technique in general: Calcium assays in cells follow changes in intracellular calcium, usually with a dye or a luminescent sensor.
`COc1cc([C@@H](C)NC(C)c2cc(-c3ccc(C(F)(F)F)cc3)c3ccccc3c2)ccc1F` (mixture of isomers) [Example 11, (1R)-1-(4-Fluoro-3-methoxyphenyl)-N-(1-(4-(4-(trifluoromethyl)phenyl)naphthalen-2-yl)ethyl)ethanamine hydrochloride]: the EC50 – broadly, the midpoint of the concentration-response curve – is under 0.02 µM.

Consider `COc1cccc([C@@H](C)NC(C)c2cc(-c3ccc(F)cc3)c3ccccc3c2)c1` (mixture of isomers) [Example 15, 1-(4-(4-Fluorophenyl)naphthalen-2-yl)-N-((R)-1-(3-methoxyphenyl)ethyl)ethanamine hydrochloride], for which the EC50 was under 0.02 µM.

Turning to `CC(N[C@H](C)c1cccc(Cl)c1)c1cc(-c2ccc(C3(F)COC3)cc2)c2ccccc2c1` (mixture of isomers) [Example 23, (1R)-1-(3-chlorophenyl)-N-(1-(4-(4-(3-fluorooxetan-3-yl)phenyl)naphthalen-2-yl)ethyl)ethanamine hydrochloride], the EC50 is under 0.02 µM.

With `CC(C)OC(=O)CCc1cc(F)cc(-c2cc(C(C)N[C@H](C)c3cccc(Cl)c3)cc3ccccc23)c1` (mixture of isomers) [Example 153, Isopropyl 3-(3-(3-(1-(((R)-1-(3-chlorophenyl)ethyl)amino)ethyl)naphthalen-1-yl)-5-fluorophenyl) propanoate hydrochloride], the EC50 lay in the range of 0.02 to 0.05 µM.

`CC(N[C@H](C)c1cccc(Cl)c1)c1cc(-c2cc(F)cc(CCC(=O)O)c2)c2ccccc2c1` (mixture of isomers) [Example 156, 3-(3-(3-(1-(((R)-1-(3-Chlorophenyl)ethyl)amino)ethyl)naphthalen-1-yl)-5-fluorophenyl)propanoic acid hydrochloride]: the EC50 fell in the range of 0.02 to 0.05 µM.

Consider `CC(N[C@H](C)c1cccc2ccccc12)c1cc(-c2ccc(C(F)(F)F)cc2)c2ccccc2c1` (single isomer, unassigned) [Example 9a, hydrochloride], for which the EC50 fell in the range of 0.02 to 0.05 µM.

As for `CC(N[C@H](C)c1cccc2ccccc12)c1cc(-c2ccc(C(F)(F)F)cc2)c2ccccc2c1` (single isomer, unassigned) [Example 9b, hydrochloride], the concentration giving a half-maximal response (EC50) was under 0.02 µM.

Consider `CCC(N[C@H](C)c1cccc(OC)c1)c1cc(-c2ccc(C(F)(F)F)cc2)c2ccccc2c1` (single isomer, unassigned) [Example 18a, hydrochloride], for which the EC50 is under 0.02 µM.

Consider `COc1cccc([C@@H](C)NC(C)c2cc(-c3ccc(C)c(C(=O)O)c3)c3ccccc3c2)c1` (single isomer, unassigned) [Example 114b, hydrochloride], for which the EC50 lay in the range of 0.02 to 0.05 µM.

As for `COc1cc(F)cc(C(C)NC(C)c2cc(-c3ccc(C(F)(F)F)cc3)c3ccccc3c2)c1` (single isomer, unassigned) [Example 163a, 1-(3-Fluoro-5-methoxyphenyl)-N-(1-(4-(4-(trifluoromethyl)phenyl)naphthalen-2-yl)ethyl)ethanamine hydrochloride], the EC50 lay in the range of 0.05 to 0.4 µM.

As for `COc1cc(F)cc(C(C)NC(C)c2cc(-c3ccc(C(F)(F)F)cc3)c3ccccc3c2)c1` (single isomer, unassigned) [Example 163b, 1-(3-Fluoro-5-methoxyphenyl)-N-(1-(4-(4-(trifluoromethyl)phenyl)naphthalen-2-yl)ethyl)ethanamine hydrochloride], the EC50 fell in the range of 0.02 to 0.05 µM.

With `C[C@@H](NCc1cc(-c2ccc(C(F)(F)F)cc2)c2ccccc2c1)c1cccc2ccccc12` [Example 1, (R)-1-(Naphthalen-1-yl)-N-((4-(4-(trifluoromethyl)phenyl)naphthalen-2-yl)methyl)ethanamine hydrochloride], the EC50 is under 0.02 µM.

With `COc1cc([C@@H](C)NCc2cc(-c3ccc(C(F)(F)F)cc3)c3ccccc3c2)ccc1F` [Example 2, (R)-1-(4-Fluoro-3-methoxyphenyl)-N-((4-(4-(trifluoromethyl)phenyl)naphthalen-2-yl)methyl)ethanamine hydrochloride], the EC50 fell in the range of 0.02 to 0.05 µM.
